Measured values reported in ChEMBL document CHEMBL1201862, “PubChem BioAssay data set” (2004).
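How tested: cells in 96-well plates exposed to compound for 48 hours at five concentrations. GI50 = concentration required for 50% inhibition of growth.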 Activity calls are given as the source filed them. Cut-off read from the data, not from the text of the source: active = GI50 up to about 1.1 µM and inactive = higher.

Assays:
Experiment in all cases: NCI anticancer screen, dose series, 48 h
[1] = tested on: 786-0
[2] = tested on: A549
[3] = tested on: CAKI-1
[4] = tested on: HCC 2998
[5] = tested on: HCT-116
[6] = tested on: HCT-15
[7] = tested on: HOP-62
[8] = tested on: Malme-3M
[9] = tested on: NCI-H226
[10] = tested on: NCI-H460
[11] = tested on: OVCAR-5
[12] = tested on: SF-268
[13] = tested on: SF-295
[14] = tested on: SF-539
[15] = tested on: SK-MEL-2
[16] = tested on: SNB-19
[17] = tested on: U-251
[18] = tested on: UACC-62
[19] = tested on: HL-60

| SMILES | GI50 [1] | GI50 [2] | GI50 [3] | GI50 [4] | GI50 [5] | GI50 [6] [µM] | GI50 [7] | GI50 [8] | GI50 [9] | GI50 [10] | GI50 [11] | GI50 [12] | GI50 [13] | GI50 [14] | GI50 [15] | GI50 [16] | GI50 [17] | GI50 [18] | GI50 [19] |
| --- | --- | --- | --- | --- | --- | --- | --- | --- | --- | --- | --- | --- | --- | --- | --- | --- | --- | --- | --- |
| O=C(O)C(Br)C(Br)c1ccccc1[N+](=O)[O-] (stereo unspecified) | > 100 µM (inactive) | > 100 µM (inactive) | > 100 µM (inactive) | > 100 µM (inactive) | > 100 µM (inactive) | > 100 | 96.2 µM (inactive) | > 100 µM (inactive) | > 100 µM (inactive) | > 100 µM (inactive) | > 100 µM (inactive) | > 100 µM (inactive) | > 100 µM (inactive) | > 100 µM (inactive) | > 100 µM (inactive) | > 100 µM (inactive) | > 100 µM (inactive) | > 100 µM (inactive) | – |
| COC(=O)C1=Nc2c(C)nn(-c3ccccc3)c2N=C(c2ccc(C)cc2)C1 | > 10 µM (inactive) | > 10 µM (inactive) | > 10 µM (inactive) | > 10 µM (inactive) | > 10 µM (inactive) | > 10 | > 10 µM (inactive) | > 10 µM (inactive) | – | – | – | > 10 µM (inactive) | > 10 µM (inactive) | > 10 µM (inactive) | – | > 10 µM (inactive) | > 10 µM (inactive) | > 10 µM (inactive) | > 10 µM (inactive) |
| CCOC(=O)C(NC(=O)NC(C(=O)OCC)C(=O)OCC)C(=O)OCC | > 100 µM (inactive) | > 100 µM (inactive) | > 100 µM (inactive) | > 100 µM (inactive) | > 100 µM (inactive) | > 100 | > 100 µM (inactive) | > 100 µM (inactive) | > 100 µM (inactive) | > 100 µM (inactive) | > 100 µM (inactive) | > 100 µM (inactive) | 49.9 µM (inactive) | > 100 µM (inactive) | > 100 µM (inactive) | > 100 µM (inactive) | > 100 µM (inactive) | > 100 µM (inactive) | – |
| CC1CNc2ccccc2N=C1NN (stereo unspecified) | > 100 µM (inactive) | > 100 µM (inactive) | > 100 µM (inactive) | > 100 µM (inactive) | > 100 µM (inactive) | > 100 | > 100 µM (inactive) | > 100 µM (inactive) | > 100 µM (inactive) | > 100 µM (inactive) | > 100 µM (inactive) | > 100 µM (inactive) | > 100 µM (inactive) | > 100 µM (inactive) | > 100 µM (inactive) | > 100 µM (inactive) | > 100 µM (inactive) | > 100 µM (inactive) | – |
| O/N=C\c1c(O)ccc2ccccc12 | 46.2 µM (inactive) | 46.6 µM (inactive) | 30.8 µM (inactive) | 31.7 µM (inactive) | 38.9 µM (inactive) | 32.2 | 70.1 µM (inactive) | 12.6 µM (inactive) | 33.3 µM (inactive) | 44.7 µM (inactive) | > 100 µM (inactive) | 31.6 µM (inactive) | 41.7 µM (inactive) | 44 µM (inactive) | – | > 100 µM (inactive) | 51.8 µM (inactive) | 41 µM (inactive) | 14.7 µM (inactive) |
| O=C1C(Cl)C(c2cccc(Cl)c2)N1c1ccc(-n2c(S)nc3ccccc3c2=O)cc1 (stereo unspecified) | 19 µM (inactive) | 28.2 µM (inactive) | 34.7 µM (inactive) | 14.4 µM (inactive) | 24.4 µM (inactive) | 1.02 | 23.9 µM (inactive) | 40.2 µM (inactive) | 25.4 µM (inactive) | 16.5 µM (inactive) | 24.9 µM (inactive) | 12.6 µM (inactive) | 19.2 µM (inactive) | 20 µM (inactive) | – | 2.47 µM (inactive) | 13.3 µM (inactive) | 14.8 µM (inactive) | 22.1 µM (inactive) |
| CCOC(=O)C(=O)N1C(C)=C(C(=O)OCC)CC(C(=O)OCC)=C1C | > 100 µM (inactive) | > 100 µM (inactive) | > 100 µM (inactive) | > 100 µM (inactive) | > 100 µM (inactive) | > 100 | > 100 µM (inactive) | > 100 µM (inactive) | – | > 100 µM (inactive) | > 100 µM (inactive) | – | > 100 µM (inactive) | > 100 µM (inactive) | > 100 µM (inactive) | > 100 µM (inactive) | – | > 100 µM (inactive) | > 100 µM (inactive) |
| Cc1cc(C)c(S(=O)(=O)N(CCCN)OCCON(CCCN)S(=O)(=O)c2c(C)cc(C)cc2C)c(C)c1 | 3.93 µM (inactive) | 3.31 µM (inactive) | 26.2 µM (inactive) | 1.9 µM (inactive) | 2.24 µM (inactive) | 25.7 | 3.01 µM (inactive) | 1.93 µM (inactive) | 4.44 µM (inactive) | 2.67 µM (inactive) | 2.24 µM (inactive) | 2.18 µM (inactive) | 20.2 µM (inactive) | 2.49 µM (inactive) | 1.64 µM (inactive) | 2.08 µM (inactive) | – | 4.19 µM (inactive) | – |
| CN1c2ccccc2S(=O)(=O)n2c(COc3ccc(Cl)cc3)nnc21 | 41.5 µM (inactive) | > 100 µM (inactive) | 85.7 µM (inactive) | > 100 µM (inactive) | > 100 µM (inactive) | > 100 | 21.7 µM (inactive) | – | 92.5 µM (inactive) | > 100 µM (inactive) | > 100 µM (inactive) | 55 µM (inactive) | 27 µM (inactive) | 35.5 µM (inactive) | > 100 µM (inactive) | 57.4 µM (inactive) | 44 µM (inactive) | 56.2 µM (inactive) | 91 µM (inactive) |
| CN(C)C(=O)Oc1ccc(-c2cn3cc(NC(=O)c4ccccc4)ccc3n2)cc1 | > 100 µM (inactive) | 83.4 µM (inactive) | > 100 µM (inactive) | 52 µM (inactive) | > 100 µM (inactive) | > 100 | > 100 µM (inactive) | – | > 100 µM (inactive) | 73.3 µM (inactive) | > 100 µM (inactive) | 80.4 µM (inactive) | > 100 µM (inactive) | > 100 µM (inactive) | > 100 µM (inactive) | 50.8 µM (inactive) | 45.3 µM (inactive) | > 100 µM (inactive) | – |
| CCn1c(-c2ccccc2)cs/c1=N\C(P(=O)(O)O)P(=O)(O)O | > 100 µM (inactive) | > 100 µM (inactive) | > 100 µM (inactive) | > 100 µM (inactive) | > 100 µM (inactive) | > 100 | > 100 µM (inactive) | > 100 µM (inactive) | > 100 µM (inactive) | > 100 µM (inactive) | > 100 µM (inactive) | > 100 µM (inactive) | > 100 µM (inactive) | > 100 µM (inactive) | – | > 100 µM (inactive) | > 100 µM (inactive) | > 100 µM (inactive) | > 100 µM (inactive) |
| CCOC(=O)C12CCC(=O)N1N(C)c1ncccc1N2 (stereo unspecified) | > 100 µM (inactive) | > 100 µM (inactive) | > 100 µM (inactive) | 77.4 µM (inactive) | > 100 µM (inactive) | > 100 | > 100 µM (inactive) | – | > 100 µM (inactive) | > 100 µM (inactive) | > 100 µM (inactive) | > 100 µM (inactive) | > 100 µM (inactive) | > 100 µM (inactive) | < 0.01 µM (active) | > 100 µM (inactive) | > 100 µM (inactive) | > 100 µM (inactive) | – |
| COC(=O)C(C(=O)C(=O)Nc1ccccc1C#N)c1nc2ccc([N+](=O)[O-])cc2nc1O (stereo unspecified) | > 100 µM (inactive) | > 100 µM (inactive) | > 100 µM (inactive) | > 100 µM (inactive) | > 100 µM (inactive) | > 100 | > 100 µM (inactive) | > 100 µM (inactive) | > 100 µM (inactive) | > 100 µM (inactive) | > 100 µM (inactive) | > 100 µM (inactive) | > 100 µM (inactive) | 44.5 µM (inactive) | > 100 µM (inactive) | > 100 µM (inactive) | > 100 µM (inactive) | > 100 µM (inactive) | – |
| C=C1CC2CC(=O)C(O)C(C1)C2 (stereo unspecified) | > 100 µM (inactive) | > 100 µM (inactive) | > 100 µM (inactive) | > 100 µM (inactive) | > 100 µM (inactive) | > 100 | > 100 µM (inactive) | – | > 100 µM (inactive) | > 100 µM (inactive) | > 100 µM (inactive) | > 100 µM (inactive) | > 100 µM (inactive) | > 100 µM (inactive) | – | – | – | > 100 µM (inactive) | > 100 µM (inactive) |
| O=c1c2c3c(sc2nc(S)n1-c1ccccc1)CCCc1ccc([N+](=O)[O-])cc1-3 | 54 µM (inactive) | 42.9 µM (inactive) | > 100 µM (inactive) | 24.6 µM (inactive) | 39.1 µM (inactive) | 22 | 35.1 µM (inactive) | 35.7 µM (inactive) | > 100 µM (inactive) | 36 µM (inactive) | > 100 µM (inactive) | 36.1 µM (inactive) | 30.4 µM (inactive) | – | > 100 µM (inactive) | 40.8 µM (inactive) | 39.8 µM (inactive) | 26.7 µM (inactive) | 17.6 µM (inactive) |
| S=c1nc(Nc2ccccc2)c2c3c(sc2[nH]1)CCCC3 | > 100 µM (inactive) | – | > 100 µM (inactive) | > 100 µM (inactive) | > 100 µM (inactive) | > 100 | > 100 µM (inactive) | > 100 µM (inactive) | > 100 µM (inactive) | > 100 µM (inactive) | > 100 µM (inactive) | > 100 µM (inactive) | > 100 µM (inactive) | – | > 100 µM (inactive) | > 100 µM (inactive) | > 100 µM (inactive) | > 100 µM (inactive) | > 100 µM (inactive) |
